Earlier results as cited in US11648213B2, “Transdermal therapeutic system containing asenapine” (LTS LOHMANN THERAPIE-SYSTEME AG, priority 2018, dated 2023).

Columns and labels:
[1] = in vivo
[2] = target: serotonin 5-HT2A receptors (Homo sapiens, UniProt P28223); details: antagonist
Chain of serotonin 5-HT2A receptors (P28223 whole entry): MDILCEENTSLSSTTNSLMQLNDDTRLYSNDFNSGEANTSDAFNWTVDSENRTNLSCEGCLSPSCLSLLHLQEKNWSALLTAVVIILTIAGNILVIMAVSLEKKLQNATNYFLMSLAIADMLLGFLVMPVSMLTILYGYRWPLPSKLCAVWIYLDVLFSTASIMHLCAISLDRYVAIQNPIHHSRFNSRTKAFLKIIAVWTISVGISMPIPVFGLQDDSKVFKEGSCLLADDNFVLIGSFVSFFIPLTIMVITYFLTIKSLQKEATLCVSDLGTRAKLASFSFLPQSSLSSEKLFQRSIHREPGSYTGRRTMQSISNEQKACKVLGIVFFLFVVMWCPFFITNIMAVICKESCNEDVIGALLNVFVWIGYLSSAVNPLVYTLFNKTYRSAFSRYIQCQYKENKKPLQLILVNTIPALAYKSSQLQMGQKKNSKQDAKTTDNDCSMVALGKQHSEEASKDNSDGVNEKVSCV

terminal disposition half-life (following sublingual administration, therapeutic doses): ≥ 24 h
bioavailability (if ingested): < 2%
Somnolence and anxiety (very common), share of the patients [1]: ≥ 10%
affinity to serotonin 5-HT2A receptors [2]: high affinity
SMILES: CN1C[C@H]2c3ccccc3Oc3ccc(Cl)cc3[C@@H]2C1 (relative stereo) [asenapine, (3aRS,12bRS)-rel-5-chloro-2,3,3a,12b-tetrahydro-2-methyl-1H-dibenz[2,3:6,7]oxepino[4,5-c]pyrrole]
